Experimental data reported in patent US7632933B2, “Corticotropin releasing factor 2 receptor agonists” (priority 2002, dated 2009).
Ends that are not written are not given here. Peptide text beside a SMILES is read from it.

What was measured:
CRF2R = molecular target: T1, CRF2R (Homo sapiens, UniProt Q13324); test: CRF2R agonist activity (EC50 and Emax), called comparative CRF binding; type: cell-based; details: CRF2R; read-out: CRF2R EC50
T1 sequence (Q13324 1-411): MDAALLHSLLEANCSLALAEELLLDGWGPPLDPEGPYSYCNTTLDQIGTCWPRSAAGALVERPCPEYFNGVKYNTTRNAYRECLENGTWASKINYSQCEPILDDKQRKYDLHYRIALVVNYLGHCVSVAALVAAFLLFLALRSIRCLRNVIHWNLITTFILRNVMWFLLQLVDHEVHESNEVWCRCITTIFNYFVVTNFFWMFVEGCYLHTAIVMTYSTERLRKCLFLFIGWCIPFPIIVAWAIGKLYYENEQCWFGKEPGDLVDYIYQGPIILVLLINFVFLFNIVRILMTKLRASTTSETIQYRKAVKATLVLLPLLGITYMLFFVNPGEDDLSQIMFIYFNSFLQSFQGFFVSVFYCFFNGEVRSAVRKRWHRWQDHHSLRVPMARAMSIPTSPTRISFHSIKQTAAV
Text: (§1) The pharmacological activity and selectivity of the peptides of present invention can be determined using published test procedures. See, e.g, U.S. patent application Ser. No. 09/799,978. Because CRF2R and CRF1R are homologous proteins, it is expected that a certain proportion of agonists for CRF2R will also function as agonists of CRF1R. As discussed above, activation of CRF1R induces activation of the HPA axis since increased corticosteroid production leads to skeletal muscle atrophy. In most cases in which an increase in muscle mass or function is desired, it is not desirable to activate the HPA axis.
(§2) Because it is desirable to discriminate binding between CRF2R, as compared with CRF1R, the assays described above may be conducted using a cell, or membrane from a cell, which expresses only CRF2R or the assays can be conducted with a recombinant source of CRF2R. Cells expressing both forms of CRFR may be modified using homologous recombination to inactivate or otherwise disable the CRF1R gene. Alternatively, if the source of CRFR contains more than one CRFR type, the background signal produced by the receptor which is not of interest must be subtracted from the signal obtained in the assay. […] Known antagonists of CRFRs include, but are not limited to, antalarmin (CRF1R selective), antisauvagine-30 (CRF2R selective) and astressin (nonselective for CRF1R/CRF2R).
(§3) Cell-based assays include the steps of contacting cells which express CRF1R or CRF2R with a peptide of the present invention or control and measuring activation of the CRFR by measuring the expression or activity of components of the CRFR signal transduction pathways.
(§4) For example, after contact with a peptide of the present invention, lysates of the cells can be prepared and assayed for induction of cAMP. cAMP is induced in response to Gαs activation. Because Gαs is activated by receptors other than CRFR and because a test peptide may be exerting its effect through CRFRs or by another mechanism, two control comparisons are relevant for determining whether the peptide increases levels of cAMP via activation of a CRFR. One control compares the cAMP level of cells contacted with the peptide and the cAMP level of cells contacted with a control compound (i.e., the vehicle in which the peptide is dissolved).
(§5) In one example, cAMP induction is measured with the use of DNA constructs containing the cAMP responsive element linked to any of a variety of reporter genes can be introduced into cells expressing CRFRs. Such reporter genes include, but are not limited to, chloramphenicol acetyltransferase (CAT), luciferase, glucuronide synthetase, growth hormone, fluorescent proteins (e.g., Green Fluorescent Protein), or alkaline phosphatase. Following exposure of the cells to the peptide, the level of reporter gene expression can be quantitated to determine the peptide's ability to increase cAMP levels and thus determine the peptide's ability to activate the CRFR.
(§6) In addition to using cells expressing full length CRFRs, cells can be engineered which express CRFRs containing the ligand binding domain of the receptor coupled to, or physically modified to contain, reporter elements or to interact with signaling proteins. For example, a wild type CRFR or CRFR fragment can be fused to a G-protein resulting in activation of the fused G-protein upon agonist binding to the CRFR portion of the fusion protein. […] In addition, alternative pathways for induction of the CRE reporter could be eliminated to reduce basal levels.

CRF1R = molecular target: T2, CRF1R (Homo sapiens, UniProt P34998); test: CRF1R agonist activity (EC50 and Emax), called comparative CRF binding; type: cell-based; details: CRF1R; read-out: CRF1R EC50
T2 sequence (P34998 24-415): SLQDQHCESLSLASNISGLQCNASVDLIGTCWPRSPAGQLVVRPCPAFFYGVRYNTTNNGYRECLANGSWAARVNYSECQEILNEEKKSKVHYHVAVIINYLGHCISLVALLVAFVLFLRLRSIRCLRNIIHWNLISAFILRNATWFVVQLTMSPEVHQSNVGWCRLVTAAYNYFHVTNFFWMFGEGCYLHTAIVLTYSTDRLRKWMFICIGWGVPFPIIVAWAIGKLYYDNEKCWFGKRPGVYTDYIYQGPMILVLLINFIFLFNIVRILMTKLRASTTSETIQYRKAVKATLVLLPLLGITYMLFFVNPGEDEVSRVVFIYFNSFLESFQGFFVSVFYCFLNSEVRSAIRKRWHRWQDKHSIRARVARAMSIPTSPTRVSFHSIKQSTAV
Text: as §1, §2, §3, §4, §5, §6

Molecule	EC50 (CRF2R) [µM]	EC50 (CRF1R) [µM]
CC[C@H](C)[C@H](NC(=O)[C@H](C)NC(=O)[C@H](CC(N)=O)NC(=O)[C@H](CCC(N)=O)NC(=O)[C@H](CCC(=O)O)NC(=O)[C@H](C)NC(=O)[C@H](CCCNC(=N)N)NC(=O)[C@H](CCC(=O)O)NC(=O)[C@H](CCCNC(=N)N)NC(=O)[C@H](CCC(N)=O)NC(=O)[C@H](CO)NC(=O)[C@H](CCC(N)=O)NC(=O)[C@@H](NC(=O)[C@H](CCCNC(=N)N)NC(=O)[C@H](C)NC(=O)[C@H](CC(C)C)NC(=O)[C@H](CCC(=O)O)NC(=O)[C@H](CC(C)C)NC(=O)[C@H](CC(C)C)NC(=O)[C@@H](NC(=O)[C@H](CCCNC(=N)N)NC(=O)[C@H](CC(C)C)NC(=O)[C@H](CC(C)C)NC(=O)[C@H](Cc1ccc(O)cc1)NC(=O)[C@H](CCC(N)=O)NC(=O)[C@@H]1CCCN1C(=O)[C@H](CC(C)C)NC(=O)[C@H](CC(=O)O)NC(=O)[C@@H](NC(=O)[C@H](CO)NC(=O)[C@H](CC(C)C)NC(=O)[C@H](CO)NC(=O)[C@@H]1CCCN1C(=O)[C@H](CC(N)=O)NC(=O)[C@@H](N)CC(=O)O)[C@@H](C)CC)[C@@H](C)O)[C@@H](C)O)C(=O)N[C@H](C(=O)N[C@@H](Cc1ccccc1)C(=O)N[C@@H](C)C(=O)N[C@@H](CO)C(=O)N[C@H](C(N)=O)C(C)C)[C@@H](C)CC [compound 339] (H-DNPSLSIDLPQYLLRTLLELARTQSQRERAEQNAIIFASV-NH2)	≥ 0.1	≥ 1
SQEPPISLDLPTQLLREVLEMTKADQLAQQAHSNRKLLDIA-NH2 [compound 105]	≥ 0.1	≥ 0.1
SQEPPISLDLPFQLLREVLEMTKADQLAQQAHSNRKLLDIA-NH2 [compound 91]	≥ 0.1	≥ 0.1
NDDPPISIDLPLLLLRNMIEMARIENEREQAGLNAKYLAEV-NH2 [compound 268]	≥ 0.1	≥ 1
SQEPPISLDLPIGLLREVLEMTKADQLAQQAHSNRKLLDIA-NH2 [compound 93]	≥ 0.1	≥ 0.1
CC[C@H](C)[C@H](NC(=O)[C@H](C)NC(=O)[C@H](CC(N)=O)NC(=O)[C@H](CCC(N)=O)NC(=O)[C@H](CCC(=O)O)NC(=O)[C@H](C)NC(=O)[C@H](CCCNC(=N)N)NC(=O)[C@H](CCC(=O)O)NC(=O)[C@H](CCCNC(=N)N)NC(=O)[C@H](CCC(N)=O)NC(=O)[C@H](CO)NC(=O)[C@H](CCC(N)=O)NC(=O)[C@@H](NC(=O)[C@H](CCCCN)NC(=O)[C@H](CCC(=O)O)NC(=O)[C@H](CC(C)C)NC(=O)[C@H](CCC(=O)O)NC(=O)[C@H](CC(C)C)NC(=O)[C@H](CC(C)C)NC(=O)[C@@H](NC(=O)[C@H](CCCNC(=N)N)NC(=O)[C@H](CC(C)C)NC(=O)[C@H](CC(C)C)NC(=O)[C@H](CCC(N)=O)NC(=O)[C@H](CC(C)C)NC(=O)[C@@H]1CCCN1C(=O)[C@H](CC(C)C)NC(=O)[C@H](CC(=O)O)NC(=O)[C@@H](NC(=O)[C@H](CO)NC(=O)[C@H](CC(C)C)NC(=O)[C@H](CO)NC(=O)[C@@H]1CCCN1C(=O)[C@H](CC(N)=O)NC(=O)[C@@H](N)CC(=O)O)[C@@H](C)CC)[C@@H](C)O)[C@@H](C)O)C(=O)N[C@H](C(=O)N[C@@H](Cc1ccccc1)C(=O)N[C@@H](C)C(=O)N[C@@H](CO)C(=O)N[C@H](C(N)=O)C(C)C)[C@@H](C)CC [compound 342] (H-DNPSLSIDLPLQLLRTLLELEKTQSQRERAEQNAIIFASV-NH2; N-terminus assumed)	0.0203	≥ 1
SQEPPISLDLPTGLLREVLEMTKADQLAQQAHSNRKLLDIA-NH2 [compound 98]	≥ 0.1	≥ 0.1
NDDPPISIDLPLQLLRNMIEMARIENEREQAGLNAKYLAEV-NH2 [compound 270]	≥ 0.1	≥ 1
SQEPPISLDLPTYLLREVLEMTKADQLAQQAHSNRKLLDIA-NH2 [compound 106]	≥ 0.1	≥ 0.1
CC[C@H](C)[C@H](N)C(=O)N[C@H](C(=O)N[C@@H](CC(C)C)C(=O)N[C@@H](CO)C(=O)N[C@@H](CC(C)C)C(=O)N[C@@H](CC(=O)O)C(=O)N[C@H](C(=O)N1CCC[C@H]1C(=O)N[C@H](C(=O)NCC(=O)N[C@@H](CC(C)C)C(=O)N[C@@H](CC(C)C)C(=O)N[C@@H](CCC(N)=O)C(=O)N[C@H](C(=O)N[C@@H](CC(C)C)C(=O)N[C@@H](CC(C)C)C(=O)N[C@@H](CCC(=O)O)C(=O)N[C@@H](CCC(N)=O)C(=O)N[C@@H](C)C(=O)N[C@@H](C)C(=O)N[C@@H](CCCNC(=N)N)C(=O)N[C@@H](C)C(=O)N[C@@H](C)C(=O)N[C@@H](CCCNC(=N)N)C(=O)N[C@@H](CCC(=O)O)C(=O)N[C@@H](CCC(N)=O)C(=O)N[C@@H](C)C(=O)N[C@H](C(=O)N[C@H](C(=O)N[C@@H](CC(N)=O)C(=O)N[C@@H](C)C(=O)N[C@@H](CCCNC(=N)N)C(=O)N[C@H](C(=O)N[C@@H](CC(C)C)C(=O)N[C@@H](C)C(=O)N[C@@H](CCCNC(=N)N)C(=O)N[C@H](C(N)=O)C(C)C)[C@@H](C)CC)[C@@H](C)O)[C@@H](C)O)[C@@H](C)CC)[C@@H](C)CC)C(C)C)C(C)C [compound 135] (H-IVLSLDVPIGLLQILLEQAARAAREQATTNARILARV-NH2)	> 0.1	> 0.1
NDDPPISIDLPQYLLRNMIEMARIENEREQAGLNAKYLAEV-NH2 [compound 265]	≥ 0.1	≥ 1
SQEPPISLDLTIGLLREVLEMTKADQLAQQAHSNRKLLDIA-NH2 [compound 86]	≥ 0.1	≥ 0.1
CC[C@H](C)[C@H](N)C(=O)N[C@H](C(=O)N[C@@H](CC(C)C)C(=O)N[C@@H](CO)C(=O)N[C@@H](CC(C)C)C(=O)N[C@@H](CC(=O)O)C(=O)N[C@H](C(=O)N1CCC[C@H]1C(=O)NCC(=O)N1CCC[C@H]1C(=O)N[C@@H](CC(C)C)C(=O)N[C@@H](CC(C)C)C(=O)N[C@@H](CCC(N)=O)C(=O)N[C@H](C(=O)N[C@@H](CC(C)C)C(=O)N[C@@H](CC(C)C)C(=O)N[C@@H](CCC(=O)O)C(=O)N[C@@H](CCC(N)=O)C(=O)N[C@H](C(=O)N[C@@H](CCCCN)C(=O)N[C@@H](CCC(N)=O)C(=O)N[C@@H](CCC(=O)O)C(=O)N[C@@H](C)C(=O)N[C@@H](C)C(=O)N[C@@H](CCCNC(=N)N)C(=O)N[C@@H](CCC(=O)O)C(=O)N[C@@H](CCC(N)=O)C(=O)N[C@@H](C)C(=O)N[C@H](C(=O)N[C@H](C(=O)N[C@@H](CC(N)=O)C(=O)N[C@@H](C)C(=O)N[C@@H](CCCNC(=N)N)C(=O)N[C@H](C(=O)N[C@@H](CC(C)C)C(=O)N[C@@H](C)C(=O)N[C@@H](CCCNC(=N)N)C(=O)N[C@H](C(N)=O)C(C)C)[C@@H](C)CC)[C@@H](C)O)[C@@H](C)O)[C@@H](C)O)[C@@H](C)CC)C(C)C)C(C)C [compound 5] (H-IVLSLDVPGPLLQILLEQTKQEAAREQATTNARILARV-NH2)	≥ 0.1	≥ 0.1
